# Measured values as given in patent US4352803A, “Novel naphthyridine derivatives, intermediates thereof, processes for preparation thereof, and use thereof” (Dainippon Pharmaceutical Co., Ltd., priority 1978, dated 1982).
# Read-outs that look alike come from different tables or passages of the source.
# Key:
# [1] = tested on: Salmonella enteritidis No. 1891; experiment: In vitro antibacterial activity (MIC), Salmonella enteritidis No. 1891; assay type: cell-based; conditions: Salmonella enterica; Salmonella enteritidis No. 1891; read-out: minimum inhibitory concentration (MIC)
# Description: (§1) (MIC) (μg/ml) Method; Chemotherapy, 22(6), 1126 (1974)
# [2] = tested on: Klebsiella pneumoniae No. 13; experiment: In vitro antibacterial activity (MIC), Klebsiella pneumoniae No. 13; assay type: cell-based; conditions: Klebsiella pneumoniae No. 13; read-out: minimum inhibitory concentration (MIC)
# Description: as §1
# [3] = tested on: Staphylococcus aureus No. 50774; experiment: in vivo efficacy against systemic infection in mice, Staphylococcus aureus No. 50774; conditions: NO.50774, in Mus musculus, po, 336 h
# Method: Male mice (ddY) weighing about 20 g
# Intravenous infection with (about
# 5 × 10^8 cells/mouse) of a bacterial
# (§2) Twice, about 5 minutes and 6 hours after infection.
# [4] = tested on: Escherichia coli P-5101; experiment: in vivo efficacy against systemic infection in mice, Escherichia coli P-5101; conditions: P5101, in Mus musculus, po, 168 h
# Method: Male mice (ddY) weighing about 20 g
# Intraperitoneal infection with (about
# 9 × 10^6 cells/mouse) of a bacterial
# (§3) suspension in trypto-soy broth with 4% mucin.
# as §2
# [5] = tested on: Pseudomonas aeruginosa No. 12; experiment: in vivo efficacy against systemic infection in mice, Pseudomonas aeruginosa No. 12; conditions: NO.12, in Mus musculus, po, 168 h
# Method: Male mice (ddY) weighing about 20 g
# (3) Pseudomonas aeruginosa No. 12;
# (about 5 × 10^3 cells/mouse) of a bacterial
# as §3, §2
# The numerals in the table show ED50 (mg/kg). ED50 values were
# [6] = tested on: Corynebacterium pyogenes C-21; experiment: In vitro antibacterial activity (MIC), Corynebacterium pyogenes C-21; assay type: cell-based; conditions: Rhodococcus (subgen. Prescottella) equi, C21; Corynebacterium pyogenes C-21; read-out: minimum inhibitory concentration (MIC)
# Description: as §1
# [7] = tested on: Gram-positive and Gram-negative bacteria; experiment: in vivo therapeutic efficacy against systemic infections in mice (overall); design: species or system mice (ddY)
# [8] = tested on: Pseudomonas aeruginosa No. 12; experiment: in vivo efficacy on the ascending kidney infection in mice; design: species or system mice (ddY-S); conditions: for ED50: 120 h, ascending kidney infection with Pseudomonas aeruginosa No. 12, po, mice
# Method: Female mice (ddY-S) weighing 22 to 30 g were anesthetized by intravenous injection of sodium pentobarbital at a dose of 50 mg/kg. Through a small suprapubic incision, the urinary bladder was exposed and then infected by injecting 0.1 ml of a 1:10,000 dilution of Pseudomonas aeruginosa No. 12 cultured for 20 hours in trypto-soy broth, using 0.25 ml syringe with 0.25 mm needle. The mice were restrained from drinking water for a period from 1 day before to 1 day after the infection and treated twice a day for 3 days starting on the day of infection. On the 5th day after infection, the kidneys were harvested for the detection of the bacteria, transversely bisected and stamped on King A Agar, which were incubated at 37° C. overnight. No bacterial finding in the kidneys was regarded as protected from the ascending kindey infection. ED50 values were calculated by probit analysis.
# [9] = tested on: Pseudomonas aeruginosa No. 12; experiment: In vitro antibacterial activity (MIC), Pseudomonas aeruginosa No. 12; assay type: cell-based; conditions: Pseudomonas aeruginosa No. 12; read-out: minimum inhibitory concentration (MIC)
# Description: as §1
# [10] = tested on: Escherichia coli P-140a; experiment: In vitro antibacterial activity (MIC), Escherichia coli P-140a; assay type: cell-based; conditions: read-out: minimum inhibitory concentration (MIC)
# Description: as §1
# [11] = Urinary excretion in dogs; assay type: in vivo, Beagle dogs
# [12] = tested on: Streptococcus faecalis P-2473; experiment: In vitro antibacterial activity (MIC), Streptococcus faecalis P-2473; assay type: cell-based; conditions: Enterococcus faecalis
# Description: as §1
# [13] = tested on: Staphylococcus aureus 209P JC-1; experiment: In vitro antibacterial activity (MIC), Staphylococcus aureus 209P JC-1; assay type: cell-based; conditions: Staphylococcus aureus 209P JC-1; read-out: minimum inhibitory concentration (MIC)
# Description: as §1
# [14] = tested on: Staphylococcus aureus No. 50774; experiment: In vitro antibacterial activity (MIC), Staphylococcus aureus No. 50774; assay type: cell-based; conditions: Staphylococcus aureus No. 50774; read-out: minimum inhibitory concentration (MIC)
# Description: as §1
# [15] = in vivo; conditions: mouse, in vivo, po
# Method: The number of dead mice was counted after 7 days, and the value of median lethal dose (LD50, mg/kg) was calculated in accordance with the Behrens-Kaerber method.
# [16] = tested on: Proteus morganii Kono; experiment: In vitro antibacterial activity (MIC), Proteus morganii Kono; assay type: cell-based; conditions: Morganella morganii, read-out: minimum inhibitory concentration (MIC)
# Description: as §1
# [17] = Plasma level in dogs; assay type: in vivo, Beagle dogs
# Method: Two male Beagle dogs weighing 12 kg each were orally given a capsule containing one of compounds 1 and 2 at a dose of 25 mg/kg with 200 ml of milk respectively. Blood samples were taken by venipuncture from the two dogs at each 0.5, 1, 2, 3, 6, 8 and 10 hours after administration, and centrifuged individually to separate the plasma.
# Drug levels were determined by the thin-layer cup-plate method using Escherichia coli Kp as an indicator organism.
# [18] = tested on: Shigella flexneri 2a; experiment: In vitro antibacterial activity (MIC), Shigella flexneri 2a; assay type: cell-based; conditions: read-out: minimum inhibitory concentration (MIC)
# Description: as §1
# [19] = tested on: Serratia marcescens IFC 3736; experiment: In vitro antibacterial activity (MIC), Serratia marcescens IFC 3736; assay type: cell-based
# Description: as §1
# [20] = tested on: Gram-positive bacteria and Gram-negative bacteria; experiment: In vitro antibacterial activity against 19 strains of bacteria (overall); assay type: cell-based; conditions: comparisons are with compounds of the invention
# Description: as §1
# [21] = tested on: Streptococcus pyogenes 65A; experiment: In vitro antibacterial activity (MIC), Streptococcus pyogenes 65A; assay type: cell-based; conditions: Streptococcus pyogenes 65A; read-out: minimum inhibitory concentration (MIC)
# Description: as §1
# [22] = tested on: Salmonella typhimurium 8-9; experiment: In vitro antibacterial activity (MIC), Salmonella typhimurium 8-9; assay type: cell-based; conditions: Salmonella enterica; Salmonella typhimurium 8-9; read-out: minimum inhibitory concentration (MIC)
# Description: as §1
# [23] = tested on: Escherichia coli NIHJ JC-2; experiment: In vitro antibacterial activity (MIC), Escherichia coli NIHJ JC-2; assay type: cell-based
# Description: as §1
# [24] = tested on: Escherichia coli P-5101; experiment: In vitro antibacterial activity (MIC), Escherichia coli P-5101; assay type: cell-based; conditions: P5101; Escherichia coli P-5101; read-out: minimum inhibitory concentration (MIC)
# Description: as §1
# [25] = tested on: Shigella flexneri 4a P-330; experiment: In vitro antibacterial activity (MIC), Shigella flexneri 4a P-330; assay type: cell-based; conditions: 4AP330, read-out: minimum inhibitory concentration (MIC)
# Description: as §1
# [26] = tested on: Pseudomonas aeruginosa Tsuchijima; experiment: In vitro antibacterial activity (MIC), Pseudomonas aeruginosa Tsuchijima; assay type: cell-based; conditions: read-out: minimum inhibitory concentration (MIC)
# Description: as §1
# [27] = tested on: Enterobacter cloacae P-2540; experiment: In vitro antibacterial activity (MIC), Enterobacter cloacae P-2540; assay type: cell-based
# Description: as §1
# [28] = tested on: Proteus mirabilis P-2381; experiment: In vitro antibacterial activity (MIC), Proteus mirabilis P-2381; assay type: cell-based
# Description: as §1
smiles,measurement,setting,value
"C=Cn1cc(C(=O)O)c(=O)c2cc(F)c(N3CCNCC3)nc21 [Compound 2, 6-Fluoro-1,4-dihydro-4-oxo-7-(1-piperazinyl)-1-vinyl-1,8-naphthyridine-3-carboxylic acid]",MIC,[1],0.05 µg/mL
same,MIC,[2],0.1 µg/mL
same,ED50,[3],33.4 mg/kg
same,ED50,[4],1.3 mg/kg
same,ED50,[5],2.4 mg/kg
same,MIC,[6],1.56 µg/mL
same,"therapeutic effect in vivo against Gram-negative bacteria, relative to compound D",[7]; Gram-negative including Pseudomonas aeruginosa,clearly better
same,"therapeutic effect against Gram-negative bacteria, relative to compound 1 or 1'","[7]; systemic infection, Gram-negative",superior
same,"therapeutic effect against Gram-negative bacteria, relative to compounds A, C, E, F, G, H and J","[7]; systemic infection, Gram-negative, especially Pseudomonas aeruginosa",better therapeutic effects
same,"therapeutic effect against Gram-positive bacteria, relative to compound 1 or 1'","[7]; systemic infection, Gram-positive",inferior
same,ED50,[8],0.56 mg/kg
same,therapeutic effect against ascending kidney infection (in words),"[8]; compounds 1 and 2 (1, 1' and 2 elsewhere in the source) compared with compound D",clearly better than that of compound D
same,MIC,[9],0.39 µg/mL
same,MIC,"[10]; P140A, Escherichia coli P-140a",0.1 µg/mL
same,urinary excretion (in words),[11]; 24 hours,fairly good
same,concentration at 24 h,"[11]; dog, urine, po, 25 mg/kg, urine pooled over 24 hours, oral 25 mg/kg",326000 ng/mL
same,dose excreted at 24 h,"[11]; dog, urine, po, 25 mg/kg, urine pooled over 24 hours, oral 25 mg/kg, read-out: urinary recovery",29.4%
same,MIC,"[12]; P2473, Streptococcus faecalis P-2473, read-out: minimum inhibitory concentration (MIC)",25 µg/mL
same,MIC,[13],1.56 µg/mL
same,MIC,[14],3.13 µg/mL
same,LD50 at 168 h,[15],> 4000 mg/kg
same,MIC,[16]; Proteus morganii Kono,0.1 µg/mL
same,concentration at 2 h,"[17]; dog, plasma, 2 hr after oral 25 mg/kg",1500 ng/mL
same,concentration at 3 h,"[17]; dog, plasma, 3 hr after oral 25 mg/kg",2800 ng/mL
same,concentration at 6 h,"[17]; dog, plasma, 6 hr after oral 25 mg/kg",5500 ng/mL
same,concentration at 8 h,"[17]; dog, plasma, 8 hr after oral 25 mg/kg",5200 ng/mL
same,concentration at 10 h,"[17]; dog, plasma, 10 hr after oral 25 mg/kg",4400 ng/mL
same,absorption in the body by oral administration (in words),[17]; oral 25 mg/kg,well absorbed
same,period after administration with plasma level higher than the MIC values against most bacteria,[17]; oral 25 mg/kg,at least 2 hours to even more than 10 hours
same,MIC,[18],0.1 µg/mL
same,MIC,"[19]; Serratia marcescens, IFC3736, read-out: minimum inhibitory concentration (MIC)",0.2 µg/mL
same,antibacterial activity (in words),[20],very high antibacterial activities
same,MIC,[21],12.5 µg/mL
same,MIC,[22],0.05 µg/mL
same,MIC,"[23]; NIHJJC2, Escherichia coli NIHJ JC-2, read-out: minimum inhibitory concentration (MIC)",0.1 µg/mL
same,MIC,[24],0.05 µg/mL
same,MIC,[25],0.2 µg/mL
same,MIC,[26]; Pseudomonas aeruginosa,0.2 µg/mL
same,MIC,"[27]; P2540, Enterobacter cloacae P-2540, read-out: minimum inhibitory concentration (MIC)",1 µg/mL
same,MIC,"[28]; Proteus mirabilis, P2381, read-out: minimum inhibitory concentration (MIC)",0.2 µg/mL
"CCn1cc(C(=O)O)c(=O)c2cc(F)c(N3CCNCC3)cc21 [Compound D, 1-Ethyl-6-fluoro-1,4-dihydro-4-oxo-7-(1-piperazinyl)quinoline-3-carboxylic acid]",MIC,[1],0.05 µg/mL
same,MIC,[2],0.2 µg/mL
same,ED50,[3],21.9 mg/kg
same,ED50,[4],4.7 mg/kg
same,ED50,[5],15.5 mg/kg
same,MIC,[6],0.78 µg/mL
same,ED50,[8],16.1 mg/kg
same,MIC,[9],0.78 µg/mL
same,MIC,[10]; Escherichia coli,0.1 µg/mL
same,MIC,"[12]; P2473, read-out: minimum inhibitory concentration (MIC)",3.13 µg/mL
same,MIC,[13],0.39 µg/mL
same,MIC,[14],0.78 µg/mL
same,MIC,[16],0.1 µg/mL
same,MIC,[18],0.1 µg/mL
same,MIC,"[19]; IFC3736, Serratia marcescens IFC 3736, read-out: minimum inhibitory concentration (MIC)",0.2 µg/mL
same,MIC,[22],0.05 µg/mL
same,MIC,"[23]; Escherichia coli, NIHJJC2, read-out: minimum inhibitory concentration (MIC)",0.1 µg/mL
same,MIC,[24],0.05 µg/mL
same,MIC,[25],0.2 µg/mL
same,MIC,[26]; Pseudomonas aeruginosa Tsuchijima,0.39 µg/mL
same,MIC,"[27]; Enterobacter cloacae, P2540, read-out: minimum inhibitory concentration (MIC)",0.1 µg/mL
same,MIC,"[28]; P2381, Proteus mirabilis P-2381, read-out: minimum inhibitory concentration (MIC)",0.2 µg/mL
